Experimental data published in US9334290B2, “Substituted tetrahydrocarbazole and carbazole carboxamide compounds” (Bristol-Myers Squibb Company, priority 2013, dated 2016).
pIC50: −log10 of the molar value. Like-named read-outs stand apart in the source and are kept apart here.

Key:
human recombinant Btk = human recombinant Btk (Homo sapiens (Human), UniProt Q06187); assay: Human Recombinant Btk enzyme assay; format: biochemical; conditions: read-out: Btk IC50 value
Jak2 tyrosine kinase = Jak2 tyrosine kinase (Homo sapiens (Human), UniProt O60674); assay: Jak2 tyrosine kinase assay; format: biochemical
Jak2 tyrosine kinase, sequence (O60674 whole entry): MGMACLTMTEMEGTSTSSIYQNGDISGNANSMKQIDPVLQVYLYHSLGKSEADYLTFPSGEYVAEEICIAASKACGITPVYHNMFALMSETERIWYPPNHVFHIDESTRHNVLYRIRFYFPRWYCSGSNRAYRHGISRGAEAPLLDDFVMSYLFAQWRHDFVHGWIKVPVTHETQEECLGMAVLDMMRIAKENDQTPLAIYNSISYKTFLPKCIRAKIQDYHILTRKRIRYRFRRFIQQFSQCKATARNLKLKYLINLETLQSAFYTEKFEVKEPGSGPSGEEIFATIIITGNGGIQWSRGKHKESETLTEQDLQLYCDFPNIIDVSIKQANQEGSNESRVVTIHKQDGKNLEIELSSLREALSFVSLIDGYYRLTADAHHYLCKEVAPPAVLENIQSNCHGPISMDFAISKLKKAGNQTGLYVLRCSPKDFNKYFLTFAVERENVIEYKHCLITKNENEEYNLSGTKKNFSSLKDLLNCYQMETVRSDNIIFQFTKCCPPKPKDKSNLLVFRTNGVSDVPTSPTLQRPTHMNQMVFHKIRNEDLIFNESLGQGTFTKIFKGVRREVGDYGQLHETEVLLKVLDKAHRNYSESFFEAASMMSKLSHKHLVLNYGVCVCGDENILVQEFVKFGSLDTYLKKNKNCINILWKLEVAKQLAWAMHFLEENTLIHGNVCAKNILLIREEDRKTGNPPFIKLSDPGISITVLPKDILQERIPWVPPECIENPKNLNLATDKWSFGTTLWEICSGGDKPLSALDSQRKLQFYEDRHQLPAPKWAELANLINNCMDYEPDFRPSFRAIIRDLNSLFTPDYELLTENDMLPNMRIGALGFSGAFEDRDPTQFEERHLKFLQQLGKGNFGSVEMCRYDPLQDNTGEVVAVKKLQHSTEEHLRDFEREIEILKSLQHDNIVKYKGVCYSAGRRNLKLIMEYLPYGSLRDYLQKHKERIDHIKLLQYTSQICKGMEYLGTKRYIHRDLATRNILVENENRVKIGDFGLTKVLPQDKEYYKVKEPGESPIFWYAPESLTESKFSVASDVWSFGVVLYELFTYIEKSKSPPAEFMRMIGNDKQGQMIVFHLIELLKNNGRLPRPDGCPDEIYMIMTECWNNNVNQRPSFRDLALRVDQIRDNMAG

[1] = tested on: CD69 expression on B cells in human whole blood; assay: Whole blood assay of BCR-stimulated CD69 expression on B cells; format: cell-based
[2] = BCR-stimulated, read-out: CD69 IC50 values
[3] = Homo sapiens, B-cell, BCR-stimulated, read-out: CD69 IC50 values

human recombinant Btk, sequence (Q06187 whole entry): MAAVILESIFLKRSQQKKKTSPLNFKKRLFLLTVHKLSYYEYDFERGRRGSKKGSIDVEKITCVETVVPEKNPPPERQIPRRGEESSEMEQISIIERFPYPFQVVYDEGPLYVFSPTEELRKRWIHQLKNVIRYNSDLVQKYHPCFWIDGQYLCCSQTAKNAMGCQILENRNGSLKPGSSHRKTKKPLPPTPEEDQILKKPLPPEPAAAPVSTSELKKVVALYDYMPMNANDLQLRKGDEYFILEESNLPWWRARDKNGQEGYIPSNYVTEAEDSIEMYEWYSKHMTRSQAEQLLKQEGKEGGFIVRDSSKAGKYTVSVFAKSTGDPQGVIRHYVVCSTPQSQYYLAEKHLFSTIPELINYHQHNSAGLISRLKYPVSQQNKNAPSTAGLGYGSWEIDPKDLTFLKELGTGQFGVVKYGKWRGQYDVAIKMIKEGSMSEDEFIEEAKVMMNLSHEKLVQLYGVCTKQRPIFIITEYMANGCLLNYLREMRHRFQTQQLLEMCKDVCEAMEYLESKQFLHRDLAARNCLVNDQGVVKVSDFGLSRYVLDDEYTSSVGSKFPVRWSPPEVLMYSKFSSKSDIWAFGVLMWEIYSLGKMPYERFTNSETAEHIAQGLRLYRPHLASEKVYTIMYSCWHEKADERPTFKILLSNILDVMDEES

Row | SMILES | pIC50 (Jak2 tyrosine kinase) | pIC50 [1, 2] | also measured
1 | Cc1c(-c2c(F)cc(C(N)=O)c3[nH]c4c(c23)CC[C@H](C(C)(C)O)C4)cccc1-n1c(=O)[nH]c2c(Cl)cccc2c1=O (single isomer, unassigned) [Example 63] | 4.96 | – | pIC50 (human recombinant Btk): 9.35; Ratio of Jak2/Btk IC50 values (Jak2 tyrosine kinase; selectivity of Btk over Jak2): 24000
2 | Cc1c(-c2c(Cl)cc(C(N)=O)c3[nH]c4cc(C(C)(C)O)ccc4c23)cccc1-n1c(=O)c2cccc(F)c2n(C)c1=O (single isomer, unassigned) [Example 1] | – | 6.72 | –
3 | [2H]C([2H])([2H])n1c(=O)n(-c2cccc(-c3c(F)cc(C(N)=O)c4[nH]c5cc(C(C)(C)O)ccc5c34)c2C)c(=O)c2cccc(F)c21 [Example 52] | 5.96 | – | –
4 | Cc1c(-c2c(Cl)cc(C(N)=O)c3[nH]c4cc(C(C)(C)O)ccc4c23)cccc1-n1c(=O)c2cccc(F)c2n(C)c1=O (atropisomer, axis not shown) [Example 11, 3-Chloro-4-(R)-(3-(S)-(8-fluoro-1-methyl(d3)-2,4-dioxo-1,2-dihydroquinazolin-3(4H)-yl)-2-methylphenyl)-7-(2-hydroxypropan-2-yl)-9H-carbazole-1-carboxamide] | 6.04 | 7.19 | –
5 | Cc1c(-c2c(Cl)cc(C(N)=O)c3[nH]c4cc(C(C)(C)O)ccc4c23)cccc1-n1c(=O)ccn(-c2ccc(F)cc2)c1=O [Example 23, 3-Chloro-4-(3-(3-(4-fluorophenyl)-2,6-dioxo-2,3-dihydropyrimidin-1(6H)-yl)-2-methylphenyl)-7-(2-hydroxypropan-2-yl)-9H-carbazole-1-carboxamide] | – | 7.01 | –
6 | Cn1c(=O)n(-c2cccc(-c3c(Cl)cc(C(N)=O)c4[nH]c5cc(C(C)(C)O)ccc5c34)c2Cl)c(=O)c2ccccc21 [Example 42, 3-Chloro-4-(2-chloro-3-(1-methyl-2,4-dioxo-1,2-dihydroquinazolin-3(4H)-yl)phenyl)-7-(2-hydroxypropan-2-yl)-9H-carbazole-1-carboxamide] | – | 6.68 | –
7 | Cc1c(-c2ccc(C(N)=O)c3[nH]c4cc(C(C)(C)O)ccc4c23)cccc1-n1cnc2ccccc2c1=O [Comparative Example 75, 7-(2-Hydroxypropan-2-yl)-4-(2-methyl-3-(4-oxoquinazolin-3(4H)-yl)phenyl)-9H-carbazole-1-carboxamide, reference compound] | – | – | pIC50 ([1]; Homo sapiens, B-cell, 18 h, anti-IgM + IL-4 stimulation, 18 h, read-out: CD69 IC50): 6.19
8 | Cc1c(-c2c(Cl)cc(C(N)=O)c3[nH]c4cc(C(C)(C)O)ccc4c23)cccc1-n1c(=O)cc2c(Cl)cccn2c1=O [Example 32, 3-Chloro-4-(R)-(3-(R)-(5-chloro-1,3-dioxo-1H-pyrido[1,2-c]pyrimidin-2(3H)-yl)-2-methylphenyl)-7-(2-hydroxypropan-2-yl)-9H-carbazole-1-carboxamide] | – | 6.80 | –
9 | Cc1c(-c2c(Cl)cc(C(N)=O)c3[nH]c4c(c23)CC[C@H](C(C)(C)O)C4)cccc1-n1c(=O)c2cccc(F)c2n(C)c1=O (atropisomer, axis not shown) [Example 26, 6-Chloro-5-(R)-(3-(S)-(8-fluoro-1-methyl-2,4-dioxo-1,2-dihydroquinazolin-3(4H)-yl)-2-methylphenyl)-2-(S)-(2-hydroxypropan-2-yl)-2,3,4,9-tetrahydro-1H-carbazole-8-carboxamide] | 5.12 | 6.80 | –
10 | Cc1c(-c2c(F)cc(C(N)=O)c3[nH]c4c(c23)CC[C@H](C(C)(C)O)C4)cccc1-n1c(=O)[nH]c2c(F)cccc2c1=O (single isomer, unassigned) [Example 59] | – | – | pIC50 (human recombinant Btk): 9.05
11 | Cc1c(-c2c(F)cc(C(N)=O)c3[nH]c4c(c23)CC[C@@H](C(C)(C)O)C4)cccc1-n1c(=O)[nH]c2c(F)cccc2c1=O (single isomer, unassigned) [Example 67] | – | – | pIC50 (human recombinant Btk): 9.31
12 | Cc1c(-c2c(F)cc(C(N)=O)c3[nH]c4cc(C(C)(C)O)ccc4c23)cccc1-n1c(=O)[nH]c2c(F)cccc2c1=O [Example 22, 3-Fluoro-4-(R)-(3-(S)-(8-fluoro-2,4-dioxo-1,2-dihydroquinazolin-3(4H)-yl)-2-methylphenyl)-7-(2-hydroxypropan-2-yl)-9H-carbazole-1-carboxamide] | – | 6.92 | –
13 | Cc1c(-c2c(F)cc(C(N)=O)c3[nH]c4c(c23)CC[C@H](C(C)(C)O)C4)cccc1-n1c(=O)cc2c(Cl)cccn2c1=O (single isomer, unassigned) [Example 65] | < 5.70 | 6.96 | –
14 | Cc1c(-c2c(Cl)cc(C(N)=O)c3[nH]c4c(c23)CC[C@H](C(C)(C)O)C4)cccc1-n1c(=O)[nH]c2c(F)cccc2c1=O (single isomer, unassigned) [Example 55] | 5.05 | 7.36 | –
15 | Cc1c(-c2c(Cl)cc(C(N)=O)c3[nH]c4c(c23)CC[C@H](C(C)(C)O)C4)cccc1-n1c(=O)[nH]c2c(F)cccc2c1=O (single isomer, unassigned) [Example 56] | < 5.70 | 6.85 | –
16 | Cc1c(-c2c(Cl)cc(C(N)=O)c3[nH]c4cc(C(C)(C)O)ccc4c23)cccc1-n1c(=O)c2cccc(F)c2n(C)c1=O (single isomer, unassigned) [Example 2] | – | 7.05 | –
17 | Cn1c(=O)n(-c2cccc(-c3c(F)cc(C(N)=O)c4[nH]c5cc(C(C)(C)O)ccc5c34)c2Cl)c(=O)c2cccc(F)c21 [Example 61] | – | 7.03 | –
18 | Cc1c(-c2c(F)cc(C(N)=O)c3[nH]c4cc(C(C)(C)O)ccc4c23)cccc1-n1c(=O)[nH]c2c(F)cccc2c1=O [Example 21, 3-Fluoro-4-(R)-(3-(R)-(8-fluoro-2,4-dioxo-1,2-dihydroquinazolin-3(4H)-yl)-2-methylphenyl)-7-(2-hydroxypropan-2-yl)-9H-carbazole-1-carboxamide] | – | 7.77 | –
19 | Cc1c(-c2c(F)cc(C(N)=O)c3[nH]c4cc(C(C)(C)O)ccc4c23)cccc1-n1c(=O)[nH]c2c(Cl)cccc2c1=O [Example 53] | – | – | pIC50 [1, 3]: 6.96
20 | Cc1c(-c2c(Cl)cc(C(N)=O)c3[nH]c4c(c23)CC[C@H](C(C)(C)O)C4)cccc1-n1c(=O)c2cccc(F)c2n(C)c1=O [Example 25, 6-Chloro-5-(3-(8-fluoro-1-methyl-2,4-dioxo-1,2-dihydroquinazolin-3(4H)-yl)-2-methylphenyl)-2-(S)-(2-hydroxypropan-2-yl)-2,3,4,9-tetrahydro-1H-carbazole-8-carboxamide] | < 5.70 | – | –

Further lines, with some results ahead:

Row | pIC50 (Jak2 tyrosine kinase) | pIC50 [1, 2] | SMILES | also measured
21 | – | 7.68 | Cc1c(-c2c(Cl)cc(C(N)=O)c3[nH]c4cc(C(C)(C)O)ccc4c23)cccc1-n1c(=O)ccn(-c2ccc(F)cc2)c1=O [Example 24, 3-Chloro-4-(R)-(3-(3-(4-fluorophenyl)-2,6-dioxo-2,3-dihydropyrimidin-1(6H)-yl)-2-methylphenyl)-7-(2-hydroxypropan-2-yl)-9H-carbazole-1-carboxamide] | –
22 | – | 7.17 | Cn1c(=O)n(-c2cccc(-c3c(Cl)cc(C(N)=O)c4[nH]c5cc(C(C)(C)O)ccc5c34)c2Cl)c(=O)c2cccc(F)c21 [Example 45, 3-Chloro-4-(R)-(2-chloro-3-(8-fluoro-1-methyl-2,4-dioxo-1,2-dihydroquinazolin-3(4H)-yl)phenyl)-7-(2-hydroxypropan-2-yl)-9H-carbazole-1-carboxamide] | –
23 | – | 6.80 | Cn1c(=O)n(-c2cccc(-c3c(Cl)cc(C(N)=O)c4[nH]c5cc(C(C)(C)O)ccc5c34)c2Cl)c(=O)c2cccc(F)c21 [Example 44, 3-Chloro-4-(2-chloro-3-(8-fluoro-1-methyl-2,4-dioxo-1,2-dihydroquinazolin-3(4H)-yl)phenyl)-7-(2-hydroxypropan-2-yl)-9H-carbazole-1-carboxamide] | –
24 | – | 6.92 | Cc1c(-c2c(F)cc(C(N)=O)c3[nH]c4cc(C(C)(C)O)ccc4c23)cccc1-n1c(=O)[nH]c2c(F)cc(F)cc2c1=O [Example 50] | –
25 | 5.72 | – | [2H]C([2H])([2H])n1c(=O)n(-c2cccc(-c3c(Cl)cc(C(N)=O)c4[nH]c5cc(C(C)(C)O)ccc5c34)c2C)c(=O)c2cccc(F)c21 (single isomer, unassigned) [Example 12] | pIC50 [1, 3]: 6.72
26 | < 5.70 | – | Cc1c(-c2c(F)cc(C(N)=O)c3[nH]c4c(c23)CC[C@H](C(C)(C)O)C4)cccc1-n1c(=O)cc2c(Cl)cccn2c1=O (single isomer, unassigned) [Example 64] | –
27 | – | 7.62 | Cc1c(-c2c(Cl)cc(C(N)=O)c3[nH]c4cc(C(C)(C)O)ccc4c23)cccc1-n1c(=O)cc2c(Cl)cccn2c1=O [Example 33, 3-Chloro-4-(R)-(3-(S)-(5-chloro-1,3-dioxo-1H-pyrido[1,2-c]pyrimidin-2(3H)-yl)-2-methylphenyl)-7-(2-hydroxypropan-2-yl)-9H-carbazole-1-carboxamide] | –
28 | – | 7.15 | Cn1c(=O)n(-c2cccc(-c3c(Cl)cc(C(N)=O)c4[nH]c5cc(C(C)(C)O)ccc5c34)c2Cl)c(=O)c2ccccc21 [Example 43, 3-Chloro-4-(R)-(2-chloro-3-(1-methyl-2,4-dioxo-1,2-dihydroquinazolin-3(4H)-yl)phenyl)-7-(2-hydroxypropan-2-yl)-9H-carbazole-1-carboxamide] | –
29 | – | 7.25 | Cc1c(-c2c(F)cc(C(N)=O)c3[nH]c4cc(C(C)(C)O)ccc4c23)cccc1-n1c(=O)c2cccc(F)c2n(C)c1=O (atropisomer, axis not shown) [Example 18, 3-Fluoro-4-(3-(S)-(8-fluoro-1-methyl-2,4-dioxo-1,2-dihydroquinazolin-3(4H)-yl)-2-methylphenyl)-7-(2-hydroxypropan-2-yl)-9H-carbazole-1-carboxamide] | –
30 | – | 7.80 | Cc1c(-c2c(F)cc(C(N)=O)c3[nH]c4cc(C(C)(C)O)ccc4c23)cccc1-n1c(=O)[nH]c2c(F)cccc2c1=O [Example 20, 3-Fluoro-4-(3-(8-fluoro-2,4-dioxo-1,2-dihydroquinazolin-3(4H)-yl)-2-methylphenyl)-7-(2-hydroxypropan-2-yl)-9H-carbazole-1-carboxamide] | –
31 | – | 6.92 | Cc1c(-c2c(F)cc(C(N)=O)c3[nH]c4cc(C(C)(C)O)ccc4c23)cccc1-n1c(=O)c2cccc(F)c2n(C)c1=O [Example 17, 3-Fluoro-4-(3-(8-fluoro-1-methyl-2,4-dioxo-1,2-dihydroquinazolin-3(4H)-yl)-2-methylphenyl)-7-(2-hydroxypropan-2-yl)-9H-carbazole-1-carboxamide] | –
